Experimental data taken from US20160213635A1, “COMPOSITIONS USEFUL IN THE PREVENTION OR TREATMENT OF SKIN CANCER” (GIULIANI S.P.A., priority 2013, published 2016).

Key:
Assay type in all cases: cell-based, human
[1] = test system: NHKs cells; assay: Immunofluorescence of phosphorylated histone γH2AX after UVA or UVB irradiation and subsequent treatment with G01; conditions: post-treatment 90 μM; UVA 10 J/cm^2 or UVB 25 mJ/cm^2; 24 h; vs cells only irradiated
Protocol: The NHKs cells were plated in the specific culture medium and maintained in culture for 24±2 h to allow adhesion to the plate. Subsequently, the plates identified as +UVA, +UVA/G01 post, UVB, and +UVB/G01 post were respectively exposed, in irradiation medium, to doses of UVA of 10 J/cm^2 or UVB of 25 mJ/cm^2. The irradiation medium was then replaced with the culture medium containing the compound of the invention G01, in a concentration of 90 μM. Based on preliminary results obtained on a broader time range, a post-treatment time of 24 h was selected, after which the plates were processed for the immunofluorescence determination of the protein expression of the phosphorylated histone γH2AX, whose expression is associated to the amount of DNA damage (double strand breaks). The protein expression of the phosphorylated histone γH2AX after treatment with the compound of the invention G01, or only after irradiation with UVA/UVB, was compared with the expression in the control cells.

[2] = test system: NHKs cells; assay: Flow cytometric (annexin V) assessment of apoptosis induced by UV irradiation and subsequent treatment with G01; conditions: post-treatment 90 μM; UVA 25 J/cm^2, UVB 80 mJ/cm^2; 24 h
Protocol: (§1) The NHKs cells were plated in the specific culture medium and maintained in culture for 24±2 h to allow adhesion to the plate. Each experimental condition was plated in duplicate. Subsequently, the plates identified as +UVA, +G01/UVA, +UVB, and +G01/UVB were respectively exposed, in the irradiation medium, to doses of UVA of 25 J/cm^2 and UVB of 80 mJ/cm^2, while the control plates (Ctr) and those treated only with the compound under examination (G01) were maintained in the dark and at room temperature for a period of time equal to the irradiation time. The irradiation medium was then replaced with the culture medium containing the compound G01 in a concentration of 90 μM. Based on the preliminary results obtained on a broader time range, a post-treatment time of 24 h was selected, after which the plates were processed according to the procedure given in the user manual of the specific kit for annexin V flow cytometric analysis. The positivity for annexin V in each condition tested (treatment with the compound of the invention under examination and/or UVA/UVBirradiation) was compared with the positivity in the control cells.

[3] = test system: NHKs cells; assay: ELISA CPDs determination after UVB irradiation and subsequent treatment with G01; conditions: post-treatment 90 μM; UVB 25 mJ/cm^2; 6 h and 24 h
Protocol: The NHKs cells were plated in the specific culture medium and maintained in culture for 24±2 h to allow adhesion to the plate. Then, the plates identified as +UVB and +G01/UVB were respectively exposed, in the irradiation medium, to a UVB dose of 25 mJ/cm^2, while the control plates (Ctr) and those treated only with the compound under examination (G01) were maintained in the dark and at room temperature for a period of time equal to the irradiation time. The irradiation medium was then replaced with the culture medium containing the compound G01, in a concentration of 90 μM. Based on the preliminary results obtained on a broader time range, post-treatment times of 6 h and 24 h were selected, after which the plates were processed according to the procedure described in the work instruction specific for the DNA extraction. The CPDs determination was performed using a specific ELISA kit following the procedure described in the user manual.

[4] = test system: NHKs cells; assay: Flow cytometric (annexin V) assessment of UV induced apoptosis after pre-treatment with G01; conditions: pre-treatment 90 μM 24±2 h; UVA 25 J/cm^2, UVB 80 mJ/cm^2; 24 h
Protocol: as §1, with “duplicate. The cells were treated for 24±2 h with G01, in a concentration of 90 μM.” for “duplicate.”, “medium.” for “medium containing the compound G01 in a concentration of 90 μM.”, “analysis (Annexin V), a typical assay to detect the early stages of apoptosis.” for “analysis.”, “G01” for “the compound of the invention under examination”, “UVA/UVB irradiation)” for “UVA/UVBirradiation)”

[5] = test system: NHKs cells; assay: ELISA 8-OHdG determination after UVA irradiation and subsequent treatment with G01; conditions: post-treatment 90 μM; UVA 10 J/cm^2; both post-treatment times 6 h and 24 h; vs cells only irradiated
Protocol: The NHKs cells were plated in the specific culture medium and maintained in culture for 24±2 h to allow adhesion to the plate. Then, the plates identified as +UVA and +UVA/G01 post were respectively exposed, in the irradiation medium, to a UVA dose of 10 J/cm^2. The irradiation medium was then replaced with the culture medium containing the compound of the invention G01, in a concentration of 90 μM. Based on preliminary results obtained on a broader time range, post-treatment times of 6 h and 24 h were selected, after which the plates were processed according to the procedure described in the work instruction specific for the DNA extraction. The determination of 8-OHdG, marker of DNA oxidative damage induced by UVA, was performed using a specific ELISA kit following the procedure described in the user manual.

[6] = test system: NHKs cells; assay: Western Blot time course of p53, phospho-p53 and GADD45a after UVB irradiation and subsequent treatment with G01; conditions: post-treatment 90 μM
Protocol: The NHKs cells were plated in the specific culture medium and maintained in culture for 24±2 h to allow adhesion to the plate. Subsequently, the plates identified as +UVB and +G01/UVB post were exposed, in the irradiation medium, to a UVB dose of 25. mJ/cm^2. The irradiation medium was then replaced with the culture medium containing the compound of the invention G01, in a concentration of 90 μM. Post-treatment times of 1-3-6-24 h were selected, after which the plates were processed for Western Blot protein determination. The protein expression of p53, phospho-p53, and GADD45a after UVB irradiation and post-treatment with the compound of the invention G01 was compared with the expression in the control cells (Ctr).

[7] = UVB 25 mJ/cm^2, shorter times of 1-3-6-24 h

Question: With C/C=C/C=C/C=C/C(=O)O [G01, 2,4,6-trans-octatrienoic acid] as the compound, how does the “fraction of phosphorylated histone γH2AX” value [1] read?
Answer: significant reduction

Question: What about the “apoptosis (positivity for annexin V) induced by UVA and UVB” value [2] of the same compound?
Answer: reduce the apoptosis

Question: What about the “CPDs products (pyrimidine cyclobutane dimers)” value [3] of the same compound?
Answer: promote the removal of CPDs products

Question: And the “apoptosis (positivity for annexin V) induced by UVA and UVB” value [4]?
Answer: reduce the apoptosis

Question: What about the “amount of 8-OHdG produced by UVA radiation” value [5] of the same compound?
Answer: significant reduction

Question: What about the “expression of the markers of DNA damage” value ([6]; 24 h after UVB irradiation 25 mJ/cm^2) of the same compound?
Answer: decrease in the expression

Question: What about the “levels of GADD45a” value [6, 7] of the same compound?
Answer: acceleration of the increase

Question: What about the “levels of p53” value [6, 7] of the same compound?
Answer: acceleration of the increase

Question: What about the “levels of phospho-p53” value [6, 7] of the same compound?
Answer: acceleration of the increase
